{"source": "ChEMBL document CHEMBL1201862", "about": "“PubChem BioAssay data set” (2004)", "key": {"[1]": {"target": "Dual specificity tyrosine-phosphorylation-regulated kinase 1A (Rattus norvegicus, UniProt Q63470)", "assay_type": "biochemical, Homo sapiens"}, "Streptokinase A": {"target": "T1, Streptokinase A (Streptococcus pyogenes serotype M1, UniProt P10520)", "T1 sequence (P10520 whole entry)": "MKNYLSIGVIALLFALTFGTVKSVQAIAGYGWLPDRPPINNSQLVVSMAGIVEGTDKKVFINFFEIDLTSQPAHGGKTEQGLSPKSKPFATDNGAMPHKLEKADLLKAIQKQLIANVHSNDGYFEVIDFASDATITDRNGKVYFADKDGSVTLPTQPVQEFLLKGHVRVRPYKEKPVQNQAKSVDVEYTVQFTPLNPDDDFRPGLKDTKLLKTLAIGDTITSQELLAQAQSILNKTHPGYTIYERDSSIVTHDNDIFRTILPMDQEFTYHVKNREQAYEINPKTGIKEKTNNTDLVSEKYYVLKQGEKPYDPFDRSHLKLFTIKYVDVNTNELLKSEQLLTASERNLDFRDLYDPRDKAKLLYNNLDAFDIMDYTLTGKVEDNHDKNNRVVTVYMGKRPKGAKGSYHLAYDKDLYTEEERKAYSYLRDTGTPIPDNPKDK", "assay": "S. pyogenes streptokinase expression inhibitors, potency, dose response, plasminogen activation absorbance, OD405 (AID 1914);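 note: secreted streptokinase activity via plasminogen activation per viability signal from cell pellet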", "assay_type": "functional, Streptococcus pyogenes M1 GAS"}, "[2]": {"test_system": "Streptococcus sp. 'group A'", "assay": "growth inhibition of control SK(-) GAS strain, dose response, counter-screen for streptokinase expression inhibitor project, luminescence, kanamycin, BacTiterGlo, confirmation (AID 1900)", "assay_type": "functional, organism-based"}, "[3]": {"assay": "cytotoxicity in HMLE control line with eGFP shRNA, dose response, counter-screen for HMLE_sh_ECad selective toxicity project, cell-based, HMLE_sh_eGFP, luminescence (AID 463074);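 note: HMLE human mammary epithelial cells expressing control shRNA against eGFP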", "assay_type": "functional, Homo sapiens"}, "[4]": {"assay": "Luminescence Cell-Based Dose Retest to Confirm Inhibitors of Cancer Stem Cells. [Related pubchem assays (depositor defined):AID2717, AID2721]", "assay_type": "functional", "conditions": "Homo sapiens"}, "Streptococcus": {"test_system": "Streptococcus", "assay": "Group A Streptococcus viability loss, dose response, counter-screen for streptokinase expression inhibitor project, luminescence, BacTiterGlo (AID 1915);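 note: potency for reduction of bacterial viability or growth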", "assay_type": "functional, organism-based"}, "Mu-type opioid receptor": {"target": "Mu-type opioid receptor (Homo sapiens, UniProt P35372)", "sequence (P35372 whole entry)": "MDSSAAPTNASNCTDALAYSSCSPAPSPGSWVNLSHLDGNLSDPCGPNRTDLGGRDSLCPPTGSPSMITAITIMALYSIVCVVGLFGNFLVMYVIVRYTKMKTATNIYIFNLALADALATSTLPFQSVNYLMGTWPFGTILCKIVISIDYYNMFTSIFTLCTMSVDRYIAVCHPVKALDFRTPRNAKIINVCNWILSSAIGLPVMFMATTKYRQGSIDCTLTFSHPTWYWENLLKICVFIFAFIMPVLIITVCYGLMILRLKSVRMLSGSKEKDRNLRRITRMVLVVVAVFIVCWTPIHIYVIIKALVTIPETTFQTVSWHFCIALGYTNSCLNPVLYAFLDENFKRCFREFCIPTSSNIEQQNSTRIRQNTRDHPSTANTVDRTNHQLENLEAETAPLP", "assay": "(§1) Counterscreen for agonists of heterodimerization of the mu 1 (OPRM1) and delta 1 (OPRD1) opioid receptors: Luminescence-based cell-based high throughput dose response assay to identify agonists of OPRM1 homodimerization.", "assay_type": "functional"}, "[5]": {"assay": "control 3'UTR Renilla luciferase suppression, dose response, counter-screen for Shn3 inhibitor project, cell-based, Clone20-Shn3RL, cherry-picked (AID 624133)", "assay_type": "functional"}, "[6]": {"target": "Delta-type opioid receptor (Homo sapiens, UniProt P41143)", "sequence (P41143 whole entry)": "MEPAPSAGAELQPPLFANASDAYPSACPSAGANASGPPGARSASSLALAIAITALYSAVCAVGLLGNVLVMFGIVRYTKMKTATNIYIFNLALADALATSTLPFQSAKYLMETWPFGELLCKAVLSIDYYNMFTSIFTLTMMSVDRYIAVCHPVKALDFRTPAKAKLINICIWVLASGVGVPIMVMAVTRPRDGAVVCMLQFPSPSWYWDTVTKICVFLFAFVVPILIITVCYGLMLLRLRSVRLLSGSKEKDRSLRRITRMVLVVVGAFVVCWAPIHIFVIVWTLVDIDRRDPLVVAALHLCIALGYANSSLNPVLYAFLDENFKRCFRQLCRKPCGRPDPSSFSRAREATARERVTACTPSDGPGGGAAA", "assay": "as §1, with “of OPRD1” for “of OPRM1”, “homodimerization. [Related pubchem assays (depositor defined):AID504326, AID504355, AID504692, AID504904, AID504905]” for “homodimerization.”", "assay_type": "functional"}, "[7]": {"assay": "Shn3 3'UTR reporter inhibitors, dose response, cell-based, Clone20 osteoblasts, firefly luciferase, cherry-picked (AID 624132)", "assay_type": "functional"}, "[8]": {"target": "Glucose-6-phosphate 1-dehydrogenase (Homo sapiens, UniProt P11413)", "sequence (P11413 whole entry)": "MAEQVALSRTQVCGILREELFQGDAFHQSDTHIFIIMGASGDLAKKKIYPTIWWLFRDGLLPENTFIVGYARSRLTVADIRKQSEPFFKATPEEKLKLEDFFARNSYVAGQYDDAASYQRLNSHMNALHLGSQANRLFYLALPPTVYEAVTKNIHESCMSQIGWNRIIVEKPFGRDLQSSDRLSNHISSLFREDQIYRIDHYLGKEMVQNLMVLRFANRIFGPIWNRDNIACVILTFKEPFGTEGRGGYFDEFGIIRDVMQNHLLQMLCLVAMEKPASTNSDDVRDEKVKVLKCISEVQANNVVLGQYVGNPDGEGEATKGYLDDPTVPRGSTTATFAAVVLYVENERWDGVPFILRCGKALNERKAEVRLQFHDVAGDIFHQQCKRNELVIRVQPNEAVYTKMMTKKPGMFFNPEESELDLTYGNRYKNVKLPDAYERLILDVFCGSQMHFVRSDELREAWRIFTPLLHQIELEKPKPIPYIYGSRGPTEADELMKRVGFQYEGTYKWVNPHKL", "assay": "human G6PD enzyme inhibitors, dose response, selectivity assay for P. falciparum G6PD inhibitor project, biochemical, fluorescence (AID 504792)", "assay_type": "functional"}, "[9]": {"assay": "HepG2 cell cytotoxicity, dose response, cytotoxicity control for Shn3 inhibitor project, CellTiter-Glo, cherry-picked (AID 624134)", "assay_type": "functional, cell-based"}, "[10]": {"target": "5-hydroxytryptamine receptor 5A (Homo sapiens, UniProt P47898)", "sequence (P47898 whole entry)": "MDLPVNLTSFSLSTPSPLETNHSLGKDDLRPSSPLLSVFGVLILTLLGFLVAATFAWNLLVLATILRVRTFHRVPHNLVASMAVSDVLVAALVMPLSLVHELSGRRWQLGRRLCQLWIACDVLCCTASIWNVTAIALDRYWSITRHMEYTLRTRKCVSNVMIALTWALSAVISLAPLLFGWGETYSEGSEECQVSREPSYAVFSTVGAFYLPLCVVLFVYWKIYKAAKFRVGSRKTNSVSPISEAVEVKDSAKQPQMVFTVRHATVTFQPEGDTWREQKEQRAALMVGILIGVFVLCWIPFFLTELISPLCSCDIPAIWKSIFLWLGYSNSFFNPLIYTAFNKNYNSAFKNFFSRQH", "assay": "Counterscreen for agonists of OPRM1-OPRD1 heterodimerization: luminescence-based cell-based high throughput dose response assay to identify agonists of 5-hydroxytryptamine (serotonin) 5A receptor (HTR5A). [Related pubchem assays (depositor defined):AID504326, AID504355, AID504692, AID504904, AID504905]", "assay_type": "functional"}, "[11]": {"target": "T2, High affinity choline transporter 1 (Homo sapiens, UniProt Q9GZV3)", "T2 sequence (Q9GZV3 whole entry)": "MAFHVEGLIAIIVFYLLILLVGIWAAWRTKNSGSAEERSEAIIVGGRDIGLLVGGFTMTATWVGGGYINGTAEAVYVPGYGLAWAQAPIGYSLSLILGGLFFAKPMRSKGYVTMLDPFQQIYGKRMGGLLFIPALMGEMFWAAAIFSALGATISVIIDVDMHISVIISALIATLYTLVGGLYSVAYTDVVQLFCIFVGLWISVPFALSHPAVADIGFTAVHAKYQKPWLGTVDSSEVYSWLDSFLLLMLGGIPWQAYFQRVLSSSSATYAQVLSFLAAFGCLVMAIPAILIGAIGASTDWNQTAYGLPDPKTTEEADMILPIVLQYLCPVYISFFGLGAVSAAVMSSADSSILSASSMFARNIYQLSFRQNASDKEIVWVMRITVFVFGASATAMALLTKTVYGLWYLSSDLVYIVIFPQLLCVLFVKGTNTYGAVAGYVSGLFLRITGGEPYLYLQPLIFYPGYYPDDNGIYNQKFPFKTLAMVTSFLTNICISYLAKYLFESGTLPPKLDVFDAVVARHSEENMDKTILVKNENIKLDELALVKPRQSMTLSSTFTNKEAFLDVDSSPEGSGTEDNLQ", "assay": "CHT inhibitors, dose response, cell-based, 5-point CRC, membrane potential dye (AID 504840)", "assay_type": "functional"}, "[12]": {"target": "T3, Long-chain-fatty-acid--AMP ligase FadD28 (Mycobacterium tuberculosis, UniProt P9WQ59)", "T3 sequence (P9WQ59 whole entry)": "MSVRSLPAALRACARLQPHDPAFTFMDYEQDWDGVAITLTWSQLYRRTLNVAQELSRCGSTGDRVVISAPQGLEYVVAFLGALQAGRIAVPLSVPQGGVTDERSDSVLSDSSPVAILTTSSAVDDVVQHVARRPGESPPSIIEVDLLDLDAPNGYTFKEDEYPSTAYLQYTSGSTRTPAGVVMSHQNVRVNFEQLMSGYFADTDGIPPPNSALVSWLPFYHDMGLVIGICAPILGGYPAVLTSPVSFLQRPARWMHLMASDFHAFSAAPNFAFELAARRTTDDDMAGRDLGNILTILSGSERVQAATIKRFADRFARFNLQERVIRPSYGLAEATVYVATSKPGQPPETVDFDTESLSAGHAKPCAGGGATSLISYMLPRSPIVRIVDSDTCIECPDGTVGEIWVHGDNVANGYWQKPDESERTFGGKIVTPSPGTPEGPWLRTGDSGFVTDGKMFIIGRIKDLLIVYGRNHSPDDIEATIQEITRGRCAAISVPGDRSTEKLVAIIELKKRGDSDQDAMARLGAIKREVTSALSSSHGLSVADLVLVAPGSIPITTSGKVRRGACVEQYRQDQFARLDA", "assay": "Fluorescence polarization aasay to screen for inhibitors that compete for the binding of FadD28 to a bisubstrate Measured in Biochemical System Using Plate Reader - 2147-01_Inhibitor_Dose_CherryPick_Activity.", "assay_type": "functional, Mycobacterium tuberculosis H37Rv"}, "Large T antigen": {"target": "Large T antigen (Simian virus 40, UniProt P03070)", "sequence (P03070 whole entry)": "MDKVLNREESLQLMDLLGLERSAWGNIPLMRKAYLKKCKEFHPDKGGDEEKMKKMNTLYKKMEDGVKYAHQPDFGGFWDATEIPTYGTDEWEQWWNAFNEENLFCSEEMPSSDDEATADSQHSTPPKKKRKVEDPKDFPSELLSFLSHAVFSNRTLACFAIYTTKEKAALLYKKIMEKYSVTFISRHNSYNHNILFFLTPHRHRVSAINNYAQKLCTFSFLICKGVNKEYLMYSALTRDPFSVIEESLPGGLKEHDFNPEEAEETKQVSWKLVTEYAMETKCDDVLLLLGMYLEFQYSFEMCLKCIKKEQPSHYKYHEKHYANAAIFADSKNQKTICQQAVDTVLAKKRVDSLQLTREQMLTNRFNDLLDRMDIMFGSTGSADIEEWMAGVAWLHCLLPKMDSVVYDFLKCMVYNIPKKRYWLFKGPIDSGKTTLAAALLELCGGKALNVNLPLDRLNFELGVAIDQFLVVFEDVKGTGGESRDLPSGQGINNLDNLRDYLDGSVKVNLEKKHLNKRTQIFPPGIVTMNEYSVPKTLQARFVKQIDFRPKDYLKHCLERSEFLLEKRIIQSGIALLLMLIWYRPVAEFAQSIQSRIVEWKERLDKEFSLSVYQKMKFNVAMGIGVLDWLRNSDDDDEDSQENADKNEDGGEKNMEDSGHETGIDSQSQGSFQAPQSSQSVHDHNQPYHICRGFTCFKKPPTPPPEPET", "assay_type": "functional, Betapolyomavirus macacae"}, "[13]": {"target": "T4, Rac GTPase-activating protein 1 (Homo sapiens, UniProt Q9H0H5)", "T4 sequence (Q9H0H5 whole entry)": "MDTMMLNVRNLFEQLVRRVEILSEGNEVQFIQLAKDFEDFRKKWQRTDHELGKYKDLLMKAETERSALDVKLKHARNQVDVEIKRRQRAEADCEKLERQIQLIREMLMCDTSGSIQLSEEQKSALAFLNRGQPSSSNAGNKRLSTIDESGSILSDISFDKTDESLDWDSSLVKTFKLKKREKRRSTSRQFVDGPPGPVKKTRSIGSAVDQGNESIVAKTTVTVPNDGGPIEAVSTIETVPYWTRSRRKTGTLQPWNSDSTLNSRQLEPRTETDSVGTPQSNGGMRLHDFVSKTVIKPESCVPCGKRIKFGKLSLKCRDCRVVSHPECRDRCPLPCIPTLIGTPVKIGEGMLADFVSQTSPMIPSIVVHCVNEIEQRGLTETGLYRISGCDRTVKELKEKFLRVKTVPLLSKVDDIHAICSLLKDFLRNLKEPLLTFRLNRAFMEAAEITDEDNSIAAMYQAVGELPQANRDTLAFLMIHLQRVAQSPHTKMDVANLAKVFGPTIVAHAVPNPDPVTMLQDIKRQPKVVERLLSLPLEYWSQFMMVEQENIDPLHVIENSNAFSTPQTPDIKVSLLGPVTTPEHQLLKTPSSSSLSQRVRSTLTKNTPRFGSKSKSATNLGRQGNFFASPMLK", "assay": "MgcRacGAP GTPase-activating activity inhibitors, confirmation, biochemical, ADP Hunter fluorescence, primary and confirmatory (AID 624330)", "assay_type": "functional"}}, "note": "Activity calls are given as the source filed them.", "data": [{"smiles": "Nc1nc2cc([N+](=O)[O-])ccc2[nH]1", "values": [{"measurement": "AC50", "setting": "[1]", "result": "7.07 µM (active)"}]}, {"smiles": "O=C(CSc1nnc(-c2ccc3c(c2)OCO3)o1)Nc1ncc(C(F)(F)F)cc1Cl", "values": [{"measurement": "EC50", "setting": "Streptokinase A", "result": "> 150 µM (not active)"}, {"measurement": "EC50", "setting": "[2]", "result": "1.16 µM (active)"}, {"measurement": "AC50", "setting": "[3]", "result": "28.5 µM (active)"}, {"measurement": "AC50", "setting": "[4]", "result": "5.84 µM (active)"}, {"measurement": "EC50", "setting": "Streptococcus", "result": "20.4 µM (active)"}]}, {"smiles": "COC(=O)c1cc2c(n1S(=O)(=O)c1ccc(C)cc1)C(=O)C(=O)c1[nH]cc(C(=O)OCc3ccccc3)c1-2", "values": [{"measurement": "EC50", "setting": "Mu-type opioid receptor", "result": "> 92.4 µM (inactive)"}, {"measurement": "AC50", "setting": "[5]", "result": "1.64 µM (active)"}, {"measurement": "EC50", "setting": "[6]", "result": "> 92.4 µM (inactive)"}, {"measurement": "AC50", "setting": "[7]", "result": "1.2 µM (active)"}, {"measurement": "IC50", "setting": "[8]", "result": "> 80 µM (inactive)"}, {"measurement": "AC50", "setting": "[9]", "result": "1.94 µM (active)"}, {"measurement": "EC50", "setting": "[10]", "result": "> 92.4 µM (inactive)"}]}, {"smiles": "CCN1CCN(c2ncnc3scc(-c4ccc(OC)cc4)c23)CC1", "values": [{"measurement": "IC50", "setting": "[11]", "result": "12.9 µM (active)"}]}, {"smiles": "Oc1ccc(/C=N/n2c(S)nnc2C2CCCCC2)c(O)c1", "values": [{"measurement": "AC50", "setting": "[12]", "result": "48.8 µM (active)"}, {"measurement": "AC50", "setting": "[1]", "result": "0.93 µM (active)"}]}, {"smiles": "Cc1cc(/C=N/NC(=O)C(=O)N2CCCC2)c(C)n1-c1cccc(Br)c1", "values": [{"measurement": "IC50", "setting": "[11]", "result": "13.8 µM (active)"}]}, {"smiles": "CC(/C=C/c1ccc(O)cc1)=N/O", "values": [{"measurement": "IC50", "setting": "Large T antigen", "result": "8.82 µM (active)"}, {"measurement": "AC50", "setting": "[1]", "result": "1.54 µM (active)"}, {"measurement": "IC50", "setting": "[13]", "result": "10.5 µM (active)"}]}]}
